Values joined by “and” are separate entries in the source; they are usually repeats but may differ in a detail not shown here. Identical values can stand only once. “Also recorded” adds a separate entry of the source.
What was measured:
[1] = tested on: normoglycaemic Sprague-Dawley rats; test: Oral Glucose Tolerance Test (OGTT), samples administered intravenously; type: in vivo; details: for effect on blood glucose concentration (in words): IV OGTT vs DMSO control and/or metformin; for Hypoglycaemic effect compared with control: combinations of oleic:palmitic acids, IV OGTT vs DMSO
Method: Crude hexane, ethyl acetate, and methanol extracts (50 mg/kg BW) were administered intravenously to normoglycaemic Sprague-Dawley rats. The Oral Glucose Tolerance Test (OGTT) was then carried out using the Accu-Check Advantage II glucose kit to examine their effect on blood glucose concentration. […] A comparison was carried out using metformin (25 mg/kg BW).
Crude hexane, ethyl acetate, and methanol extracts (50 mg/kg BW) were administered intravenously to normoglycaemic Sprague-Dawley rats. The Oral Glucose Tolerance Test (OGTT) was then carried out using the Accu-Check Advantage II glucose kit to examine their effect on blood glucose concentration.
Crude hexane, ethyl acetate, and methanol extracts (50 mg/kg BW) were administered intravenously to normoglycaemic Sprague-Dawley rats.
The dosage of the extracted fr1dbe (30 mg/kg BW) and the glucose loads (1.75 g/kg BW were administered to the rats intravenously and orally, respectively. The extract was administered intravenously in order to reduce the amounts of sample that were used for the bioassays. The volume of the negative control/carrier agent (DMSO) used was approximately 0.3 mL.
In order to determine the efficacy of the isolated compounds, a known oral hypoglycaemic drug, metformin was used to do a comparison. Metformin was obtained from Sigma-Aldrich (Cat. No. d15, 095-9) and OGTTs were done via intravenous (FIGS. 7-13) and oral administration (FIGS. 14-16).

[2] = tested on: rats; test: Haemodynamic parameters (blood pressure and heart rate), non-invasive CODA machine; type: in vivo; details: for effect on mean arterial blood pressure (in words): vs DMSO; for effect on systolic blood pressure (in words): vs DMSO and captopril
From the text: A non-invasive method was used to measure the blood pressure and heart rate of the rats using the CODA machine from Kent Scientific Corporation. The rats were placed in a restraint (rat holder), to reduce agitation, and then placed on a warming pad of the machine (to reduce anxiety). The occlusion and volume pressure recording cuffs (O-cuff and VPR-cuff respectively) were placed onto the tail of the animal in that order respectively, in order to record the readings. The O-cuff terminates blood flow to the tail and then dilates slowly allowing for the physiological readings to be obtained from the returning blood flow, which is determined by the VPR sensor. The VPR-cuff is then used to measure the arterial pulsations as blood returns to the tail and it begins to swell. As the tail begins to swell the systolic blood pressure is measured, while the diastolic blood pressure is calculated when swelling stops.
The rats were trained within the restrain for three to four days prior to the measurements in order to reduce errors and an additional acclimatization period was done to allow the rats to relax prior to the basal blood pressure readings. […] The systolic and diastolic pressures, mean arterial pressure and the heart rate per minute was measured and about 20-25 readings were recorded and timed for approximately 30 minute including an allowance for acclimatization. […] Non-invasive blood pressure Measurement in Mice. […] Humana Press, which is herein incorporated by reference in its entirety.
A non-invasive method was used to measure the blood pressure and heart rate of the rats using the CODA-6-non-invasive machine from Kent Scientific Corporation. The rats were placed in a restraint (rat holder), to reduce agitation, which was then placed on a warming pad of the machine (to reduce anxiety). The occlusion and volume pressure recording cuffs (O-cuff and VPR-cuff respectively) were placed on to the tail of the animal in that order respectively, in order to record the readings. The O-cuff terminates blood flow to the tail and then dilates slowly allowing for the physiological readings to be obtained from the returning blood flow which is determined by the VPR sensor. The VPR-cuff then measured the arterial pulsations as blood returns to the tail and begins to swell. As the tail begins to swell the systolic blood pressure is measured, while the diastolic blood pressure is calculated when swelling stops.
The systolic and diastolic blood pressure, mean arterial pressure and the heart rate per minute was measured and about 20-25 readings were recorded and timed for approximately 30 minutes including acclimatization (FIGS. 17-28). […] Non-invasive blood pressure Measurement in Mice. […] Humana Press, which is herein incorporated by reference in its entirety.

[3] = tested on: rats; test: Post-prandial blood insulin level, Mercodia ELISA; type: in vivo; details: 30 mg/kg BW IV in DMSO
Method: This was carried out using the Mercodia ELISA Diagnostic kit in order to deduce the plasma insulin and glucagon levels respectively. These levels were used to determine the effect of the compound fr1dbe, on glucose homeostasis, when compared with a positive methformin and a DMSO negative control.
The samples were administered intravenously and orally at their respective dosages. After 15 minutes 75 mg/kg BW of sodium pentabarbitol was administered to the rats via an intraperitoneal injection. Blood samples were then obtained from the renal artery of the rats and collected in the (red) vacutainer for the serum sample. The samples were then centrifuged at 3,000 r.p.m. for 10 minutes and stored at −20° C. until used.
The Mercodia ELISA is a direct technique utilizing two monoclonal antibodies of the insulin molecule, one of which binds to the microtitre well, while the other binds to the insulin within the sample. When the unbound antibody is removed, a reaction with 3,3′,5,5′-tetramethylbenzidine aids in detection and spectophotometric analysis after the reaction is stopped.
The enzyme conjugate solution and wash buffer solution were prepared prior to the experiment. 10 μL of the calibrators, samples and controls were pipetted into the microtitre wells in duplicate. […] The ELISA plate was read immediately at an optical density at 450 nm and the results calculated. […]

[4] = Solubility; type: physicochemical
[5] = general description of eicosane; cited from earlier work
[6] = tested on: normoglycaemic Sprague-Dawley rats; test: Oral Glucose Tolerance Test (OGTT), samples administered orally (gavage); type: in vivo; details: 900 mg/kg BW orally vs water
Method: The hypoglycaemic principles of E. camaldulensis were also administered orally. Preliminary OGTT experiments at 200 and 500 mg/kg BW were done, and as a result the dosage was increased to 700 and 900 mg/kg BW. The glucose tolerance curves (GTC) were obtained similarly to the OGTT done via intravenous administration, in that the compound was administered after the fasting blood sample was obtained, however via a oral gavage (FIGS. 14-16).
A comparison was done of the oral administration of the fatty acids with the respective oil on the blood glucose concentration by using the OGTT done in order to deduce their effect. Oleic and palmitic acids are major constituents of olive oil and coconut oil respectively. As such, comparisons were made after OGTTs were carried out to determine the effect of olive oil, coconut oil and the combined product (2.3 olive oil:1 coconut oil), on blood glucose concentration.
An analysis of glucose tolerance curves to compare olive oil, FR2DBS (oleic acid) and the combined oil (FR2DBW; 2.3 olive oil:1 coconut oil) at 900 mg/kg BW vs the control (water) all administered orally, was conducted. […] See also FIG. 29.

[7] = 30 mg/kg BW, 10 minute interval
[8] = 30 mg/kg BW, 15 minute interval
[9] = 30 mg/kg BW intravenously, 90 minute interval (glycaemic peak)
[10] = 50 mg/kg BW, 10 minute interval
[11] = 50 mg/kg BW, 20 minute interval
[12] = 30 mg/kg BW, 20 minute interval

CCCCCCCCCCCCCCCCCCCC [FR1DBE, eicosane]
blood glucose concentration ([1]; 30 mg/kg BW intravenously, 60 minutes interval (fasting region)): 3.7 ± 0.154 mmol/L
blood glucose concentration ([1]; 30 mg/kg BW intravenously, 90 minute interval (glycaemic peak), listed as fr1dbe): 4.71 ± 1.43 mmol/L
heart rate [2, 7]: 386 ± 7.91 beats/min
systolic blood pressure (SBP) [2, 7]: 118.42±1.87 mmHg
diastolic blood pressure (DBP) [2, 8]: 84.0±0.98 mmHg
systolic blood pressure (SBP) [2, 8]: 122.21±1.1 mmHg
effect on mean arterial blood pressure (in words) ([2]; 30 mg/kg BW): significantly reduced
effect on systolic blood pressure (in words) ([2]; 30 mg/kg BW): significantly reduced
blood insulin level ([3]; after 3½ hours of administration (210 minute interval)): 0.259 ± 0.03 µg/L
blood insulin level ([3]; after the 90 minute interval): 0.214 ± 0.02 µg/L
solubility in water [4]: not soluble in water
solubility in alcohol [5]: soluble in alcohol

CCCCCCCCCCCCCCCC(=O)O [FR1DBY, palmitic acid]
blood glucose concentration [1, 9]: 5.4 ± 0.163 mmol/L
difference in blood glucose from the control ([1]; 50 mg/kg BW IV, 90 minute interval, vs DMSO): 1.06 mmol/L
blood glucose concentration ([1]; 50 mg/kg BW intravenously, 90 minutes interval): 5.26 ± 0.183 mmol/L
effect on blood glucose concentration (in words) [1]: same effect as Metformin
effect on blood glucose concentration (in words) ([1]; listed as commercially available palmitic acid): able to significantly lower the blood glucose concentration
more effective dosage (hypoglycaemic effect) ([1]; IV OGTT, dose comparison): 50 mg/kg BW
Hypoglycaemic effect compared with control [1]: Significant
effect on blood glucose level (in words) [6]: able to significantly lower the area under the glucose tolerance curve; also recorded: able to lower the blood glucose concentration
diastolic blood pressure (DBP) [2, 10]: 81.93±1.74 mmHg
heart rate [2, 10]: 372.4 ± 3.07 beats/min
mean arterial pressure (MAP) [2, 10]: 95.67±1.77 mmHg
systolic blood pressure (SBP) [2, 10]: 123.42±1.27 mmHg
systolic blood pressure (SBP) ([2]; 50 mg/kg BW, 15 minute interval): 139.0±3.5 mmHg
diastolic blood pressure (DBP) [2, 11]: 93.79±3.14 mmHg
mean arterial pressure (MAP) [2, 11]: 104.23±3.08 mmHg

CCCCCCCC/C=C\CCCCCCCC(=O)O [FR2DBS, oleic acid]
blood glucose concentration [1, 9]: 5.23 ± 0.14 mmol/L
effect on blood glucose concentration (in words) [1]: significantly lower than the control
Hypoglycaemic effect compared with control [1]: Significant
effect on blood glucose level (in words) [6]: able to lower the blood glucose concentration
effect on blood glucose level (in words) ([6]; listed as oleic acid): able to reduce the post-prandial glucose level
diastolic blood pressure (DBP) [2, 7]: 93.42±1.74 mmHg
heart rate [2, 7]: 389 ± 7.27 beats/min
diastolic blood pressure (DBP) [2, 8]: 93.21±1.33 mmHg
mean arterial pressure (MAP) [2, 12]: 100.43±1.39 mmHg
effect on mean arterial blood pressure (in words) ([2]; 30 mg/kg BW): significant decrease
effect on systolic blood pressure (in words) ([2]; 30 mg/kg BW): very low and comparable to the effect caused by captopril

C[C@H](CS)C(=O)N1CCC[C@H]1C(=O)O [captopril, reference compound]
diastolic blood pressure (DBP) [2, 7]: 91.09±1.90 mmHg and 91±1.90 mmHg
heart rate [2, 7]: 413 beats/min and 412 beats/min
mean arterial pressure (MAP) [2, 7]: 110.86±1.71 mmHg
systolic blood pressure (SBP) [2, 7]: 131.35±1.50 mmHg and 130.92±1.50 mmHg and 130.93±1.50 mmHg
diastolic blood pressure (DBP) [2, 8]: 91.19±1.37 mmHg
heart rate [2, 8]: 401.0±6.28 BPM
diastolic blood pressure (DBP) [2, 12]: 93.30±1.58 mmHg
mean arterial pressure (MAP) [2, 12]: 105.07±2.06 mmHg
heart rate ([2]; 30 mg/kg BW, first 10 minutes): 399.93±6.91 BPM

CN(C)C(=N)N=C(N)N [metformin, reference compound]
decrease in the blood sugar level compared with the control ([1]; 25 mg/kg BW IV, 90 minute interval, vs DMSO): 1.26 mmol/L
blood glucose concentration ([1]; 25 mg/kg BW intravenously, 90 minute interval): 5.07 ± 0.089 mmol/L and 5.07 ± 0.09 mmol/L
blood glucose concentration ([1]; 25 mg/kg BW intravenously, 90 minute interval, listed as Metformin): 5.06 ± 0.089 mmol/L and 5.07 ± 0.089 mmol/L

Reference: patent US9278081B2, “Extracts from Eucalyptus camaldulensis for the treatment of hyperglycemia and hypertension” (The University of the West Indies, priority 2012, dated 2016)
